Laboratory results taken from US4194006A, “Therapeutic application of acetyl-d,l-carnitine and other acyl derivatives of d,l-carnitine” (priority 1977, dated 1980).
Read-outs that look alike come from different tables or passages of the source.

Assays:
[1] = test system: female rats; experiment: antifatigue effect: rota-rod; format: in vivo, rat; settings: for responders at 300 mg/kg / responders at 400 mg/kg / responders at 600 mg/kg: Rattus norvegicus, ip, 0.25 h, read-out: percentage of animals staying on the rota-rod more than 180 seconds
Method in brief: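 Female rats dosed intraperitoneally in saline, with controls given saline alone. Every 15 min after treatment animals were placed on a 6 cm rod rotating at 16 r.p.m. Value is the percentage of animals staying on the rod for more than 180 s, per session.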

[2] = test system: mice; experiment: in vivo; settings: for tolerance: LD50 intravenously in mice, compared with d,l-carnitine
Source text: (§1) The tolerance of acetyl-d,l-carnitine and of the other aforementioned acyl derivatives of the formula (I), as well as their salts were investigated by comparing the LD50 obtained by administering the compounds intravenously in mice with the LD50 obtained under the same experimental conditions by intravenous injection of d,l-carnitine.

[3] = test system: isolated rat atrium; experiment: antiarrhythmic effect, isolated rat atrium method of M. Libonati and G. Segre; settings: for Mean percent variation versus controls: excitability (-%) / Mean percent variation versus controls: frequency max (-%) / inhibition at 0.1 µg/mL / inhibition at 0.01 µg/mL / inhibition at 0.001 µg/mL: decrease; for Mean percent variation versus controls: refractory period (+%) / Mean percent variation versus controls: rheobase (+%) / activation at 0.1 µg/mL / activation at 0.01 µg/mL / activation at 0.001 µg/mL: increase; for inhibition at 0.1 µg/mL / activation at 0.1 µg/mL / inhibition at 0.01 µg/mL / activation at 0.01 µg/mL / inhibition at 0.001 µg/mL / activation at 0.001 µg/mL: Rattus norvegicus
[4] = test system: isolated rabbit hearts; experiment: cardiokinetic effect on isolated heart (Langendorff): contractile force after anoxia, positive inotropic effect; settings: for Contractile force, Mean ± S.E.: 10 minutes from interruption of anoxic period
Method in brief: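 Rabbit hearts were perfused Langendorff-style with oxygenated Ringer at 38.2 °C. Anoxia was applied until contractile force dropped by 80%, then the hearts were reoxygenated with or without compound. Contractile force was expressed as a percentage 10 min after the anoxic period ended.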

[5] = test system: adrenaline-induced toxicity; experiment: antagonism to adrenaline-induced toxicity; format: in vivo, male albino Swiss mice
Experimental: The antagonism to adrenaline-induced toxicity was also investigated with the following results. Groups of ten male albino Swiss mice were injected with adrenaline (tartrate) intraperitoneally at progressive logarithmic doses. Other similar groups of animals were injected with 250 mg/kg of the compounds under examination via the same route, 30 minutes before adrenaline administration. Mortality was assessed by means of the Litchfield and Wilcoxon method 36 hours after adrenaline administration.

[6] = test system: isolated rabbit hearts; experiment: coronary vasodilator effect: coronary flow, isolated heart (Langendorff)
Method in brief: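 Langendorff-perfused isolated rabbit hearts in oxygenated Ringer at 38.2° C; anoxia imposed until contractile force fell by 80%, then reoxygenated with or without test compound. Coronary flow, isometric contraction and ECG recorded by polygraph.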

[7] = in vivo; settings: mouse, in vivo, iv
Source text: as §1

[8] = 300 mg/kg i.p., session 1 (every 15 minutes)
[9] = 300 mg/kg i.p., session 2 (every 15 minutes)
[10] = 300 mg/kg i.p., session 4 (every 15 minutes)
[11] = 300 mg/kg i.p., session 5 (every 15 minutes)
[12] = 300 mg/kg i.p., session 6 (every 15 minutes)
[13] = 400 mg/kg i.p., session 1 (every 15 minutes)
[14] = 400 mg/kg i.p., session 2 (every 15 minutes)
[15] = 400 mg/kg i.p., session 3 (every 15 minutes)
[16] = 400 mg/kg i.p., session 4 (every 15 minutes)
[17] = 400 mg/kg i.p., session 5 (every 15 minutes)
[18] = 400 mg/kg i.p., session 6 (every 15 minutes), * p < 0.05
[19] = 600 mg/kg i.p., session 1 (every 15 minutes)
[20] = 600 mg/kg i.p., session 2 (every 15 minutes)
[21] = 600 mg/kg i.p., session 3 (every 15 minutes)
[22] = 600 mg/kg i.p., session 4 (every 15 minutes)
[23] = 600 mg/kg i.p., session 5 (every 15 minutes)
[24] = 600 mg/kg i.p., session 6 (every 15 minutes), * p < 0.05

## CC(O)CC(=O)OC(CC(=O)[O-])C[N+](C)(C)C (stereo not shown)
[1]; [8]
  percentage of animals staying on the rota-rod more than 180 seconds: 0%
[1]; [9]
  percentage of animals staying on the rota-rod more than 180 seconds: 0%
[1]; 300 mg/kg i.p., session 3 (every 15 minutes)
  percentage of animals staying on the rota-rod more than 180 seconds: 0%
[1]; [10]
  percentage of animals staying on the rota-rod more than 180 seconds: 0%
[1]; [11]
  percentage of animals staying on the rota-rod more than 180 seconds: 10.0%
[1]; [12]
  percentage of animals staying on the rota-rod more than 180 seconds: 20.0%
[1]; [13]
  percentage of animals staying on the rota-rod more than 180 seconds: 0%
[1]; [14]
  percentage of animals staying on the rota-rod more than 180 seconds: 0%
[1]; [15]
  percentage of animals staying on the rota-rod more than 180 seconds: 10.0%
[1]; [16]
  percentage of animals staying on the rota-rod more than 180 seconds: 20.0%
[1]; [17]
  percentage of animals staying on the rota-rod more than 180 seconds: 20.0%
[1]; [18]
  percentage of animals staying on the rota-rod more than 180 seconds: 30.0%
[1]; [19]
  percentage of animals staying on the rota-rod more than 180 seconds: 0%
[1]; [20]
  percentage of animals staying on the rota-rod more than 180 seconds: 0%
[1]; [21]
  percentage of animals staying on the rota-rod more than 180 seconds: 10.0%
[1]; [22]
  percentage of animals staying on the rota-rod more than 180 seconds: 20.0%
[1]; [23]
  percentage of animals staying on the rota-rod more than 180 seconds: 30.0%
[1]; [24]
  percentage of animals staying on the rota-rod more than 180 seconds: 40.0%
[2]
  tolerance: better tolerance properties
[2]; intravenously in mice, compounds used as hydrochloryde forms
  Approx. LD50: ~745 mg/kg
[3]; 1·10^-4 g/lt
  Mean percent variation versus controls: excitability (-%): 63.60%
  Mean percent variation versus controls: frequency max (-%): 42.30%
  Mean percent variation versus controls: refractory period (+%): 27.10%
  Mean percent variation versus controls: rheobase (+%): 42.12%
[3]; 1·10^-5 g/lt
  Mean percent variation versus controls: excitability (-%): 19.12%
  Mean percent variation versus controls: frequency max (-%): 23.20%
  Mean percent variation versus controls: refractory period (+%): 20.31%
  Mean percent variation versus controls: rheobase (+%): 25.35%
[3]; 1·10^-6 g/lt
  Mean percent variation versus controls: excitability (-%): 12.07%
  Mean percent variation versus controls: frequency max (-%): 10.02%
  Mean percent variation versus controls: refractory period (+%): 16.32%
  Mean percent variation versus controls: rheobase (+%): 9.78%
[3]; isolated rat atrium
  antiarrhythmic effect: most clear cut antiarrhythmic properties
[4]; 1·10^-5 g/lt
  Contractile force, Mean ± S.E.: 54.3 ± 6.18%
[4]; 1·10^-6 g/lt
  Contractile force, Mean ± S.E.: 30.1 ± 4.62%
[4]; 5·10^-6 g/lt
  Contractile force, Mean ± S.E.: 38.6 ± 7.12%
[4]; equal concentrations in the perfusion fluid, Student's t test
  positive inotropic effect: greater positive inotropic effect than that induced by d,l-carnitine
[5]; 250 mg/kg i.p. 30 minutes before adrenaline
  antagonism to adrenaline-induced toxicity: antagonize adrenaline-induced toxicity to a greater degree than d,l-carnitine
[5]; Adrenaline + compound, compound 250 mg/kg i.p. 30 minutes before adrenaline, mice, mortality 36 hours
  LD50 (fiducial limits for 95%) of adrenaline after the compound: 172.15 (110.02-219.48) mg/kg
[6]; 1·10^-5 g/lt
  Coronary flow, Mean ± S.E.: 89.19 ± 6.75%
[6]; 1·10^-6 g/lt
  Coronary flow, Mean ± S.E.: 73.12 ± 6.80%
[6]; 5·10^-6 g/lt
  Coronary flow, Mean ± S.E.: 76.04 ± 8.96%

## CC(=O)CC(=O)OC(CC(=O)[O-])C[N+](C)(C)C (racemic) [acetoacetyl-d,l-carnitine]
[1]; [8]
  responders at 300 mg/kg: 0%
[1]; [9]
  responders at 300 mg/kg: 0%
[1]; [10]
  responders at 300 mg/kg: 10%
[1]; [11]
  responders at 300 mg/kg: 10%
[1]; [12]
  responders at 300 mg/kg: 10%
[1]; [13]
  responders at 400 mg/kg: 0%
[1]; [14]
  responders at 400 mg/kg: 0%
[1]; [15]
  responders at 400 mg/kg: 20%
[1]; [16]
  responders at 400 mg/kg: 20%
[1]; [17]
  responders at 400 mg/kg: 20%
[1]; [18]
  responders at 400 mg/kg: 30%
[1]; [19]
  responders at 600 mg/kg: 0%
[1]; [20]
  responders at 600 mg/kg: 10%
[1]; [21]
  responders at 600 mg/kg: 20%
[1]; [22]
  responders at 600 mg/kg: 40%
[1]; [23]
  responders at 600 mg/kg: 40%
[1]; [24]
  responders at 600 mg/kg: 40%
[7]
  LD50: ~728 mg/kg
[2]
  tolerance: better tolerance properties
[3]; 1·10^-4 g/lt, read-out: Mean percent variation versus controls: excitability (-%)
  inhibition at 0.1 µg/mL: 40.1%
[3]; 1·10^-4 g/lt, read-out: Mean percent variation versus controls: frequency max (-%)
  inhibition at 0.1 µg/mL: 25.5%
[3]; 1·10^-4 g/lt, read-out: Mean percent variation versus controls: refractory period (+%)
  activation at 0.1 µg/mL: 22.8%
[3]; 1·10^-4 g/lt, read-out: Mean percent variation versus controls: rheobase (+%)
  activation at 0.1 µg/mL: 21.9%
[3]; 1·10^-5 g/lt, read-out: Mean percent variation versus controls: excitability (-%)
  inhibition at 0.01 µg/mL: 27.1%
[3]; 1·10^-5 g/lt, read-out: Mean percent variation versus controls: frequency max (-%)
  inhibition at 0.01 µg/mL: 22.7%
[3]; 1·10^-5 g/lt, read-out: Mean percent variation versus controls: refractory period (+%)
  activation at 0.01 µg/mL: 14.7%
[3]; 1·10^-5 g/lt, read-out: Mean percent variation versus controls: rheobase (+%)
  activation at 0.01 µg/mL: 9.94%
[3]; 1·10^-6 g/lt, read-out: Mean percent variation versus controls: excitability (-%)
  inhibition at 0.001 µg/mL: 12.2%
[3]; 1·10^-6 g/lt, read-out: Mean percent variation versus controls: frequency max (-%)
  inhibition at 0.001 µg/mL: 7.34%
[3]; 1·10^-6 g/lt, read-out: Mean percent variation versus controls: refractory period (+%)
  activation at 0.001 µg/mL: 10.7%
[3]; 1·10^-6 g/lt, read-out: Mean percent variation versus controls: rheobase (+%)
  activation at 0.001 µg/mL: 3.01%
[4]; 1·10^-5 g/lt
  Contractile force, Mean ± S.E.: 58.3 ± 5.08%
[4]; 1·10^-6 g/lt
  Contractile force, Mean ± S.E.: 30.1 ± 3.98%
[4]; 5·10^-6 g/lt
  Contractile force, Mean ± S.E.: 38.2 ± 4.66%
[6]; 1·10^-5 g/lt
  Coronary flow, Mean ± S.E.: 89.82 ± 6.38%
[6]; 1·10^-6 g/lt
  Coronary flow, Mean ± S.E.: 74.65 ± 3.54%
[6]; 5·10^-6 g/lt
  Coronary flow, Mean ± S.E.: 75.70 ± 10.1%
